One may read the IC50 as the concentration that gives 50% inhibition. A low value points to greater potency.

Holding throughout (type): biochemical
Assay [1] has as its target T1, human eIF4A1 (Homo sapiens, UniProt P60842). Nature of the assay: malachite green phosphate release (RNA-dependent ATPase) assay.
Assay [2] deals with T1, human eIF4A1. Nature of the assay: malachite green phosphate release (RNA-dependent ATPase) assay; also Cy3/Cy5 RNA unwinding assay (IC50 […]).
Assay [3] deals with T1, human eIF4A1. The description is as above. This is another data set of the same source.

T1 sequence (P60842 2-406): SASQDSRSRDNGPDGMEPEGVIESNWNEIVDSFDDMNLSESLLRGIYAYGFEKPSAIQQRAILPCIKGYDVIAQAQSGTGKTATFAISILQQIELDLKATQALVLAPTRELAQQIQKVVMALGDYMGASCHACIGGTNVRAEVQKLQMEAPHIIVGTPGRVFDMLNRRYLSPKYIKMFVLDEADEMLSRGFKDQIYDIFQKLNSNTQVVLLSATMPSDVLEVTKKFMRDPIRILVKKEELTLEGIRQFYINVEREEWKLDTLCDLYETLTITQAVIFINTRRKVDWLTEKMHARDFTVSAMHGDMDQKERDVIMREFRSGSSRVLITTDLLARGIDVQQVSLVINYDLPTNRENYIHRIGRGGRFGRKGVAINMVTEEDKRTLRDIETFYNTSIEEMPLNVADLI

`CC(=NNC(=O)c1nnn(-c2nonc2N)c1CSc1nncn1C)c1cccc(O)c1` [RBF98]: in assay [1], the midpoint of inhibition, the IC50, lay at 3000 nM.

In assay [2], `CC(=NNC(=O)c1nnn(-c2nonc2N)c1CSc1nncn1C)c1ccccc1O` [RBF197] came in with an IC50 of 0.0552 nM.

On to `CC(=NNC(=O)c1nnn(-c2nonc2N)c1CSc1nncn1C)c1ccccc1O` [RBF203], for which the IC50 in assay [1] was 0.209 nM.

Take `Cn1cnnc1SCc1c(C(=O)NN=Cc2ccccc2O)nnn1-c1nonc1N` [RBF208]: in assay [3], the IC50 came out at 0.0741 nM.

The values are drawn from PMC9441068, “Novel eIF4A1 inhibitors with anti‐tumor activity in lymphoma” (Molecular Medicine, 2022).
